# Measured values from the supplement of paper PMC10331698.
# ± gives the standard deviation of the averaged measurements.
# How the values were obtained:
# Assay in all cases: level (log10 ratio to DMSO vehicle control); higher = higher biomarker level / cell amount than vehicle control
# [1] = compound: OCCC(F)(F)C(F)(F)C(F)(F)C(F)(F)C(F)(F)C(F)(F)C(F)(F)C(F)(F)F [8:2 Fluorotelomer alcohol]; details: 6700 nM; in DMSO
# Description: (§1)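 BioMAP Diversity Plus panel of 12 human primary cell co-culture systems (3C, 4H, LPS, SAg, BT, BF4T, BE3C, CASM3C, HDF3CGF, KF3CT, MyoF, Mphg). Compounds were added 1 h before stimulation and left for 24 h (MyoF 48 h; BT 72 h for soluble read-outs or 6 d for IgG). Biomarkers were read by ELISA, cytotoxicity by SRB, PBMC viability and proliferation by Alamar Blue. Each well value was divided by the mean of 8 DMSO control wells on the same plate and log10 transformed; duplicate blinded samples were tested at 4 concentrations.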
# [2] = compound: OCCCCC(F)(F)C(F)(F)C(F)(F)C(F)(F)F [4:4 Fluorotelomer alcohol]; details: in DMSO
# Description: as §1
# [3] = compound: O=S(=O)(OCC(F)(F)F)C(F)(F)C(F)(F)C(F)(F)C(F)(F)F [2,2,2-Trifluoroethyl perfluorobutanesulfonate]; details: in DMSO
# Description: as §1
# [4] = compound: C=C(C)C(=O)OCC(F)(F)C(F)(F)C(F)(F)F [2,2,3,3,4,4,4-Heptafluorobutyl methacrylate]; details: in DMSO
# Description: as §1
# [5] = compound: O=C(Cl)C(F)(F)C(F)(F)C(F)(F)C(=O)Cl [Hexafluoroglutaryl chloride]; details: in DMSO
# Description: as §1
# [6] = compound: C=CC(=O)OCCC(F)(F)C(F)(F)C(F)(F)C(F)(F)C(F)(F)C(F)(F)C(F)(F)C(F)(F)F [8:2 Fluorotelomer acrylate]; details: in DMSO
# Description: as §1
# [7] = compound: O=P(O)(O)CCC(F)(F)C(F)(F)C(F)(F)C(F)(F)C(F)(F)C(F)(F)F [2-(Perfluorohexyl)ethylphosphonic acid]; details: in DMSO
# Description: as §1
Test System,level (log10) [1],level (log10) ([2]; 6700 nM),level (log10) ([2]; 20000 nM),level (log10) ([2]; 60000 nM),level (log10) ([3]; 6700 nM),level (log10) ([3]; 20000 nM),level (log10) ([3]; 60000 nM),level (log10) ([4]; 6700 nM),level (log10) ([4]; 20000 nM),level (log10) ([4]; 60000 nM),level (log10) ([5]; 6700 nM),level (log10) ([5]; 20000 nM),level (log10) ([5]; 60000 nM),level (log10) ([6]; 6700 nM),level (log10) ([6]; 20000 nM),level (log10) ([6]; 60000 nM),level (log10) ([7]; 6700 nM),level (log10) ([7]; 20000 nM),level (log10) ([7]; 60000 nM)
LPS:sPGE2,-0.11 ± 0.033,0.0035 ± 0.0092,-0.015 ± 0.0099,-0.015 ± 0.055,0.049 ± 0.02,-0.006 ± 0.038,-0.024 ± 0.018,0.05 ± 0.042,-0.009 ± 0.024,0.076 ± 0.014,-0.011 ± 0.018,-0.0375 ± 0.026,-0.056 ± 0.03,-0.118 ± 0.005,-0.102 ± 0.044,-0.069 ± 0.03,-0.0245 ± 0.013,-0.0005 ± 0.019,0.0035 ± 0.025
BF4T:CD90,-0.022 ± 0.0099,-0.009 ± 0.013,-0.0155 ± 0.012,0.0005 ± 0.018,0.004 ± 0.0099,-0.007 ± 0.023,-0.009 ± 0.011,0 ± 0.0071,-0.004 ± 0.0057,-0.007 ± 0.0042,0.0005 ± 0.013,-0.002 ± 0.018,-0.0035 ± 0.0035,-0.0205 ± 0.018,-0.019 ± 0.0099,-0.0035 ± 0.021,-0.0185 ± 0.023,-0.0165 ± 0.005,-0.008 ± 0.031
SAg:CCL2/MCP-1,0.0025 ± 0.0035,-0.009 ± 0.018,-0.002 ± 0.0042,-0.008 ± 0.027,0.0045 ± 0.0064,0.0045 ± 0.019,0.0405 ± 0.033,0.0075 ± 0.012,-0.011 ± 0.0028,0.017 ± 0.011,-0.02 ± 0.017,-0.004 ± 0.041,0.017 ± 0.051,-0.0115 ± 0.00071,-0.023 ± 0.013,-0.0085 ± 0.036,0.0075 ± 0.0092,-0.006 ± 0.016,0.041
BF4T:MMP-3,-0.001 ± 0.0014,0.0075 ± 0.021,0.017 ± 0.041,0.0295 ± 0.067,-0.012 ± 0.0085,-0.0055 ± 0.0035,0.02 ± 0.037,-0.009 ± 0.03,-0.011 ± 0.0085,0.006 ± 0.0085,-0.004 ± 0.011,-0.0145 ± 0.0064,0.019 ± 0.0057,-0.014 ± 0.0057,-0.022 ± 0.0057,0.0085 ± 0.028,-0.0205 ± 0.005,-0.0125 ± 0.022,-0.002 ± 0.023
4H:CCL2/MCP-1,-0.012 ± 0.014,0.0135 ± 0.011,-0.016 ± 0.023,0.023 ± 0.055,-0.0345 ± 0.015,-0.046 ± 0.0014,-0.0385 ± 0.021,0.0125 ± 0.012,-0.007 ± 0.0099,0.0335 ± 0.047,-0.022 ± 0.0042,-0.015,-0.015,-0.025 ± 0.018,-0.016 ± 0.023,0.012 ± 0.051,-0.0295 ± 0.0092,-0.031 ± 0.025,-0.0215 ± 0.054
LPS:CD142/Tissue Factor,-0.0205 ± 0.1,0.003 ± 0.027,0.031 ± 0.027,-0.0095 ± 0.023,0.0325 ± 0.12,-0.069 ± 0.13,-0.153 ± 0.13,-0.0225 ± 0.026,-0.013 ± 0.025,0.02 ± 0.0057,0.0275 ± 0.018,-0.0025 ± 0.044,-0.0185 ± 0.0035,0.0375 ± 0.0035,0.0245 ± 0.044,0.0085 ± 0.03,0.0045 ± 0.1,0.054 ± 0.047,0.119 ± 0.052
BF4T:CCL26/Eotaxin-3,-0.106 ± 0.012,-0.0205 ± 0.046,-0.0015 ± 0.015,0.0105 ± 0.047,-0.0015 ± 0.016,-0.018 ± 0.0071,-0.014 ± 0.037,0.032 ± 0.069,0.0385 ± 0.05,0.0235 ± 0.052,0.023 ± 0.031,0.017 ± 0.033,0.035 ± 0.045,-0.0555 ± 0.012,-0.0785 ± 0.079,-0.098 ± 0.12,-0.0135 ± 0.022,-0.04 ± 0.0099,-0.034 ± 0.079
4H:CD62P/P-selectin,-0.0615 ± 0.0064,0.023 ± 0.0028,0.019 ± 0.013,0.0115 ± 0.005,-0.0365 ± 0.016,-0.034 ± 0.0085,-0.0525 ± 0.015,-0.002 ± 0.052,-0.008 ± 0.037,0.129 ± 0.021,-0.012 ± 0.033,0.0045 ± 0.026,-0.0045 ± 0.043,-0.018 ± 0.0028,-0.092 ± 0.0028,-0.047 ± 0.064,0.022 ± 0.0042,-0.01 ± 0.017,-0.0585 ± 0.021
